Laboratory results from patent US6737383B1, “Herbicidal oxadiazolidines” (priority 1999, dated 2004).

What was measured:
cocklebur = test: Test B pre/postemergence cocklebur; type: in vivo, Xanthium strumarium; conditions: for Cocklebur plant response rating: scale of 0 to 10 where 0 is no effect and 10 is complete control
Procedure, shortened: (§1)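 Test chemicals in a non-phytotoxic solvent mixture with surfactant were sprayed preemergence onto planted seeds and postemergence onto plants 2 to 18 cm tall (1- to 4-leaf stage). After twelve to sixteen days in a greenhouse, injury was visually rated against untreated controls from 0 (no effect) to 10 (complete control).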

wild oat = test: Test B pre/postemergence wild oat; type: in vivo, Avena fatua; conditions: for Wild oats plant response rating: scale of 0 to 10 where 0 is no effect and 10 is complete control
Procedure, shortened: as §1

morningglory = test: Test B pre/postemergence morningglory; type: in vivo, Ipomoea hederacea; conditions: for Morningglory plant response rating: scale of 0 to 10 where 0 is no effect and 10 is complete control
Procedure, shortened: as §1

smallflower flatsedge = test: Test B flood test smallflower flatsedge; type: in vivo, Cyperus difformis
Procedure, shortened: (§2)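 Read-out is a visual response score from 0 (no effect) to 10 (complete control), assigned by comparison with untreated controls. Treatment was applied at the 2-leaf stage, and plants stayed in the greenhouse for twelve to sixteen days before scoring.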

bamyardgrass = test: Test B flood test barnyardgrass; type: in vivo, Echinochloa crus-galli
Procedure, shortened: as §2

purple nutsedge = test: Test B pre/postemergence purple nutsedge; type: in vivo, Cyperus rotundus; conditions: for Nutsedge plant response rating: scale of 0 to 10 where 0 is no effect and 10 is complete control
Procedure, shortened: as §1

giant foxtail = test: Test B pre/postemergence giant foxtail; type: in vivo, Setaria faberii; conditions: for Giant foxtail plant response rating: scale of 0 to 10 where 0 is no effect and 10 is complete control
Procedure, shortened: as §1

duck salad = test: Test B flood test duck salad; type: in vivo, Heteranthera limosa
Procedure, shortened: as §2

surinam grass = test: Test B pre/postemergence surinam grass; type: in vivo, Brachiaria decumbens
Procedure, shortened: as §1

crabgrass = test: Test B pre/postemergence crabgrass; type: in vivo, Digitaria sanguinalis; conditions: for Crabgrass plant response rating: scale of 0 to 10 where 0 is no effect and 10 is complete control
Procedure, shortened: as §1

rice = test: Test B flood test rice; type: in vivo, Oryza sativa
Procedure, shortened: as §2

wheat = test: Test B pre/postemergence wheat; type: in vivo, Triticum aestivum; conditions: for Wheat plant response rating: scale of 0 to 10 where 0 is no effect and 10 is complete control
Procedure, shortened: as §1

rape = test: Test B pre/postemergence rape; type: in vivo, Brassica napus; conditions: for Rape plant response rating: scale of 0 to 10 where 0 is no effect and 10 is complete control
Procedure, shortened: as §1

corn = test: Test B pre/postemergence corn; type: in vivo, Zea mays; conditions: for Corn plant response rating: scale of 0 to 10 where 0 is no effect and 10 is complete control
Procedure, shortened: as §1

pigweed = test: Test B pre/postemergence pigweed; type: in vivo, Amaranthus retroflexus; conditions: for Redroot pigweed plant response rating: scale of 0 to 10 where 0 is no effect and 10 is complete control
Procedure, shortened: as §1

sugar beet = test: Test B pre/postemergence sugar beet; type: in vivo, Beta vulgaris; conditions: for Sugarbeets plant response rating: scale of 0 to 10 where 0 is no effect and 10 is complete control
Procedure, shortened: as §1

[1] = Postemergence, Rate 125 g/ha, scale 0 to 10, 0 is no effect, 10 is complete control
[2] = Preemergence, Rate 62 g/ha, scale 0 to 10 (0 no effect, 10 complete control)
[3] = Rate 500 g/ha, Postemergence, scale 0 to 10, 0 no effect, 10 complete control
[4] = Postemergence (flood test), Rate 125 g/ha, scale 0 to 10, 0 is no effect, 10 is complete control
[5] = Rate 62 g/ha, Postemergence (flood test species), scale of 0 to 10 where 0 is no effect and 10 is complete control
[6] = Rate 500 g/ha, listed under Postemergence (flood test species), scale 0 to 10, 0 no effect, 10 complete control

CC(C)N(C(=O)n1oc(=O)n(C2CCCO2)c1=O)c1ccc(F)cc1 (centres unmarked) [Compound 345]
0: Plant response rating, Cocklebur (cocklebur; [1]) | Plant response rating, Cocklebur (cocklebur; [2]) | Cocklebur plant response rating (0 to 10 scale) (cocklebur; Preemergence, Rate 125 g/ha) | Cocklebur plant response rating (cocklebur; Preemergence, Rate 250 g/ha) | Cocklebur plant response rating (cocklebur; Preemergence, Rate 500 g/ha) | Cocklebur plant response rating (cocklebur; Rate 62 g/ha, Postemergence) | Plant response rating, Cocklebur (cocklebur; [3]) | Plant response rating, Wild oats (wild oat; [1]) | Plant response rating, Wild oats (wild oat; [2]) | Wild oats plant response rating (0 to 10 scale) (wild oat; Preemergence, Rate 125 g/ha) | Wild oats plant response rating (wild oat; Preemergence, Rate 250 g/ha) | Wild oats plant response rating (wild oat; Preemergence, Rate 500 g/ha) | Wild oats plant response rating (wild oat; Rate 62 g/ha, Postemergence) | Plant response rating, Wild oats (wild oat; [3]) | Plant response rating, Morningglory (morningglory; [1]) | Plant response rating, Morningglory (morningglory; [2]) | Morningglory plant response rating (0 to 10 scale) (morningglory; Preemergence, Rate 125 g/ha) | Morningglory plant response rating (morningglory; Preemergence, Rate 250 g/ha) | Morningglory plant response rating (morningglory; Preemergence, Rate 500 g/ha) | Morningglory plant response rating (morningglory; Rate 62 g/ha, Postemergence) | Plant response rating, Morningglory (morningglory; [3]) | Plant response rating, S. Flatsedge (smallflower flatsedge; [4]) | S. Flatsedge plant response rating (smallflower flatsedge; [5]) | Plant response rating, S. Flatsedge (smallflower flatsedge; [6]) | Plant response rating, Barnyardgrass (bamyardgrass; [4]) | Barnyardgrass plant response rating (bamyardgrass; [5]) | Plant response rating, Barnyardgrass (bamyardgrass; Rate 250 g/ha, Postemergence (flood test species), scale of 0 to 10 where 0 is no effect and 10 is complete control) | Plant response rating, Barnyardgrass (bamyardgrass; [6]) | Plant response rating, Nutsedge (purple nutsedge; [1]) | Plant response rating, Nutsedge (purple nutsedge; [2]) | Nutsedge plant response rating (0 to 10 scale) (purple nutsedge; Preemergence, Rate 125 g/ha) | Nutsedge plant response rating (purple nutsedge; Preemergence, Rate 250 g/ha) | Nutsedge plant response rating (purple nutsedge; Preemergence, Rate 500 g/ha) | Nutsedge plant response rating (purple nutsedge; Rate 62 g/ha, Postemergence) | Plant response rating, Nutsedge (purple nutsedge; [3]) | Plant response rating, Giant foxtail (giant foxtail; [1]) | Plant response rating, Giant foxtail (giant foxtail; [2]) | Giant foxtail plant response rating (0 to 10 scale) (giant foxtail; Preemergence, Rate 125 g/ha) | Giant foxtail plant response rating (giant foxtail; Preemergence, Rate 250 g/ha) | Giant foxtail plant response rating (giant foxtail; Preemergence, Rate 500 g/ha) | Giant foxtail plant response rating (giant foxtail; Rate 62 g/ha, Postemergence) | Plant response rating, Giant foxtail (giant foxtail; [3]) | Plant response rating, Ducksalad (duck salad; [4]) | Ducksalad plant response rating (duck salad; [5]) | Plant response rating, Ducksalad (duck salad; [6]) | Plant response rating, B. signalgrass (surinam grass; [1]) | Plant response rating, B. signalgrass (surinam grass; [2]) | B. signalgrass plant response rating (0 to 10 scale, 0 is no effect, 10 is complete control) (surinam grass; Preemergence, Rate 125 g/ha) | B. signalgrass plant response rating (surinam grass; Preemergence, Rate 250 g/ha, scale of 0 to 10 where 0 is no effect and 10 is complete control) | B. signalgrass plant response rating (surinam grass; Preemergence, Rate 500 g/ha, scale of 0 to 10 where 0 is no effect and 10 is complete control) | B. signalgrass plant response rating (surinam grass; Rate 62 g/ha, Postemergence, scale of 0 to 10 where 0 is no effect and 10 is complete control) | Plant response rating, B. signalgrass (surinam grass; Rate 250 g/ha, Postemergence, scale of 0 to 10 where 0 is no effect and 10 is complete control) | Plant response rating, B. signalgrass (surinam grass; [3]) | Plant response rating, Crabgrass (crabgrass; [1]) | Plant response rating, Crabgrass (crabgrass; [2]) | Crabgrass plant response rating (0 to 10 scale) (crabgrass; Preemergence, Rate 125 g/ha) | Crabgrass plant response rating (crabgrass; Preemergence, Rate 250 g/ha) | Crabgrass plant response rating (crabgrass; Preemergence, Rate 500 g/ha) | Crabgrass plant response rating (crabgrass; Rate 62 g/ha, Postemergence) | Plant response rating, Crabgrass (crabgrass; [3]) | Plant response rating, Rice (rice; [4]) | Rice plant response rating (rice; [5]) | Plant response rating, Rice (rice; [6]) | Plant response rating, Wheat (wheat; [1]) | Plant response rating, Wheat (wheat; [2]) | Wheat plant response rating (0 to 10 scale) (wheat; Preemergence, Rate 125 g/ha) | Wheat plant response rating (wheat; Preemergence, Rate 250 g/ha) | Wheat plant response rating (wheat; Preemergence, Rate 500 g/ha) | Wheat plant response rating (wheat; Rate 62 g/ha, Postemergence) | Plant response rating, Wheat (wheat; [3]) | Plant response rating, Rape (rape; [1]) | Plant response rating, Rape (rape; [2]) | Rape plant response rating (0 to 10 scale) (rape; Preemergence, Rate 125 g/ha) | Rape plant response rating (rape; Preemergence, Rate 250 g/ha) | Rape plant response rating (rape; Preemergence, Rate 500 g/ha) | Rape plant response rating (rape; Rate 62 g/ha, Postemergence) | Plant response rating, Rape (rape; [3]) | Plant response rating, Corn (corn; [1]) | Plant response rating, Corn (corn; [2]) | Corn plant response rating (0 to 10 scale) (corn; Preemergence, Rate 125 g/ha) | Corn plant response rating (corn; Preemergence, Rate 250 g/ha) | Corn plant response rating (corn; Preemergence, Rate 500 g/ha) | Corn plant response rating (corn; Rate 62 g/ha, Postemergence) | Plant response rating, Corn (corn; [3]) | Plant response rating, Redroot pigweed (pigweed; [1]) | Plant response rating, Redroot pigweed (pigweed; [2]) | Redroot pigweed plant response rating (0 to 10 scale) (pigweed; Preemergence, Rate 125 g/ha) | Redroot pigweed plant response rating (pigweed; Preemergence, Rate 250 g/ha) | Redroot pigweed plant response rating (pigweed; Preemergence, Rate 500 g/ha) | Redroot pigweed plant response rating (pigweed; Rate 62 g/ha, Postemergence) | Plant response rating, Redroot pigweed (pigweed; [3]) | Plant response rating, Sugarbeets (sugar beet; [1]) | Plant response rating, Sugarbeets (sugar beet; [2]) | Sugarbeets plant response rating (0 to 10 scale) (sugar beet; Preemergence, Rate 125 g/ha) | Sugarbeets plant response rating (sugar beet; Preemergence, Rate 250 g/ha) | Sugarbeets plant response rating (sugar beet; Preemergence, Rate 500 g/ha) | Sugarbeets plant response rating (sugar beet; Rate 62 g/ha, Postemergence) | Plant response rating, Sugarbeets (sugar beet; [3])
